Six compounds from US9340590B2 (priority 2011, dated 2016) can be followed below.

The target of the assay is hNav1.7 (Homo sapiens, UniProt Q15858). Description: cell-based. The format is cell-based. Particulars: for IC50: IonWorks Quattro.
Where [1] appears, read: use-dependent, […], read-out: IWQ Use Nav1.7 (μm).

Where two headings read alike, the source gives them in different places. Positions of bridges follow the written chain, without caps; N, C: chain ends. Non-standard residues stand in square brackets, D forms with d. Residues, ends and D or L forms follow the SMILES beside them. No end group written: not given here. Lys(Me2) = CN(C)CCCC[C@H](N)C(=O)O; Abu = CC[C@H](N)C(=O)O

hNav1.7, sequence (Q15858 whole entry, looked up): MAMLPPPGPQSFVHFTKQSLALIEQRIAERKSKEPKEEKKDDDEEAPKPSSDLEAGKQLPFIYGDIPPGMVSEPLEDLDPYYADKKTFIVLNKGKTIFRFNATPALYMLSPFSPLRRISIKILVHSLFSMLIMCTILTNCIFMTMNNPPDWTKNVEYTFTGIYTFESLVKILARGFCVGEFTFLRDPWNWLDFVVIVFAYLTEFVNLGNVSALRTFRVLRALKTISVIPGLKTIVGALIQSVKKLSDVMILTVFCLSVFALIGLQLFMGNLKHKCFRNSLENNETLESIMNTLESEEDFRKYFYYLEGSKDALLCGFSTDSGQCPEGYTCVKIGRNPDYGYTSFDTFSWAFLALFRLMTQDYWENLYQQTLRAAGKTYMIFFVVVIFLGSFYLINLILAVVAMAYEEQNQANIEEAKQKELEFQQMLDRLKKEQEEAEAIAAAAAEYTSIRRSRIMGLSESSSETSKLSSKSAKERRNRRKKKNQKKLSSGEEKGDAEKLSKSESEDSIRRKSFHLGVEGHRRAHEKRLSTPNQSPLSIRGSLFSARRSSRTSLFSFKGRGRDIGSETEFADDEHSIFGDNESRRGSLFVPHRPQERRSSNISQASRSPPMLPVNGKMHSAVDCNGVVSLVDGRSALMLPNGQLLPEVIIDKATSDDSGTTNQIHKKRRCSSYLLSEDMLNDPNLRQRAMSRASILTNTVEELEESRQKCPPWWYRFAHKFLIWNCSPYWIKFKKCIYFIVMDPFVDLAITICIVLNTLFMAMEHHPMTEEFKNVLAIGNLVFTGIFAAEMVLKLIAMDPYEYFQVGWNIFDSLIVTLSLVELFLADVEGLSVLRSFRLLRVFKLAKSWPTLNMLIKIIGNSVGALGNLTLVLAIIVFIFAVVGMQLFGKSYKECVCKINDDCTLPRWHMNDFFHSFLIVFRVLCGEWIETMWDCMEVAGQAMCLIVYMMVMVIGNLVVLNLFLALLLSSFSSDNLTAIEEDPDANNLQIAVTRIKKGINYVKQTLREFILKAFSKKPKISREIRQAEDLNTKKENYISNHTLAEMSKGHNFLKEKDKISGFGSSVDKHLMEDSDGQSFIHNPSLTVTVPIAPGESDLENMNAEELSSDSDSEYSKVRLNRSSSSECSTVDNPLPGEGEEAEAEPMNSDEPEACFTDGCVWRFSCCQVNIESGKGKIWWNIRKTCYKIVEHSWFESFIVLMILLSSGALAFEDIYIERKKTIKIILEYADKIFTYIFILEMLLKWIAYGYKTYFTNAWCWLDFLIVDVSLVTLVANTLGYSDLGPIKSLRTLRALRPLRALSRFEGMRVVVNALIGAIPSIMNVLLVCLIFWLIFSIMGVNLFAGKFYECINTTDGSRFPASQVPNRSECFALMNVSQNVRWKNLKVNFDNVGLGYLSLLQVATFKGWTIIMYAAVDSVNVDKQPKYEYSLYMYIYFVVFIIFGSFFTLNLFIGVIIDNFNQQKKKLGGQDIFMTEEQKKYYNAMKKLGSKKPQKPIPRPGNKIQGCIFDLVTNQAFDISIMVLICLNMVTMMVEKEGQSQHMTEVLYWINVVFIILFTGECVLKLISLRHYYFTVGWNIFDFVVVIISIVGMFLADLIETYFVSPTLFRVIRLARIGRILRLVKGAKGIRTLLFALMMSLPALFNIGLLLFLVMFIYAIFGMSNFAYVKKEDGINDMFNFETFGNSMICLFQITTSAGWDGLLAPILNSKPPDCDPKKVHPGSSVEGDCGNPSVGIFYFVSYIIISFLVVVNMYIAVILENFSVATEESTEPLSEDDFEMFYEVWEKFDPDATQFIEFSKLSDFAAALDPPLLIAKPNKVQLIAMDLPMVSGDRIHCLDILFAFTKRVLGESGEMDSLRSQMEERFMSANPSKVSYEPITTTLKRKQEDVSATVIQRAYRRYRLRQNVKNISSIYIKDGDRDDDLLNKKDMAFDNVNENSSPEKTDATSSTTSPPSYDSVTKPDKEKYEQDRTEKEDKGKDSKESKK

For the compound `CC[C@H](C)[C@@H]1NC(=O)[C@@H]2CSSC[C@@H]3NC(=O)[C@H](C(C)C)NC(=O)[C@H](CC(C)C)NC(=O)[C@H](CC(N)=O)NC(=O)[C@@H]4CCCN4C(=O)[C@H](CCCCN(C)C)NC(=O)[C@H](CSSC[C@H](NC(=O)[C@@H](N)CC(=O)O)C(=O)N[C@@H](CC(C)C)C(=O)NCC(=O)N[C@@H](Cc4ccccc4)C(=O)N[C@@H](CCSC)C(=O)N[C@@H](CCCNC(=N)N)C(=O)N[C@@H](CCCCN)C(=O)N2)NC(=O)[C@H](CSSC[C@@H](C(=O)N[C@@H](CCCCN)C(=O)N[C@@H](Cc2ccc(O)cc2)C(=O)N[C@H](C(=O)N[C@@H](Cc2ccccc2)C(N)=O)C(C)C)NC(=O)[C@H](Cc2c[nH]c4ccccc24)NC(=O)[C@H](CCCCN)NC(=O)[C@H](Cc2c[nH]cn2)NC(=O)[C@H]([C@@H](C)O)NC(=O)[C@H](CCCNC(=N)N)NC(=O)[C@H](CO)NC3=O)NC(=O)[C@H](CCCCN)NC(=O)[C@H](CC(=O)O)NC(=O)[C@H](CC(N)=O)NC(=O)[C@H](CC(=O)O)NC(=O)[C@@H]2CCCN2C1=O` [compound 314] (H-DCLGFMRKCIPDNDKCC[Lys(Me2)]PNLVCSRTHKWCKYVF-NH2; disulfide 2-17, 9-23, 16-30), the IC50 (Use, read-out: IWQ Use Nav1.7) stood at 210 nM.
Regarding `CC[C@H](C)[C@@H]1NC(=O)[C@@H]2CSSC[C@@H]3NC(=O)[C@H](C(C)C)NC(=O)[C@H](CC(C)C)NC(=O)[C@H](CC(N)=O)NC(=O)[C@@H]4CCCN4C(=O)[C@H](CCCNC(=N)N)NC(=O)[C@H](CSSC[C@H](NC(=O)[C@@H](N)CC(=O)O)C(=O)N[C@@H](CC(C)C)C(=O)NCC(=O)N[C@@H](Cc4ccccc4)C(=O)N[C@@H](CCSC)C(=O)N[C@@H](CCCNC(=N)N)C(=O)N[C@@H](CCCCN)C(=O)N2)NC(=O)[C@H](CSSC[C@@H](C(=O)N[C@@H](CCCCN)C(=O)N[C@@H](Cc2ccc(O)cc2)C(=O)N[C@H](C(N)=O)C(C)C)NC(=O)[C@H](Cc2c[nH]c4ccccc24)NC(=O)[C@H](CCCCN)NC(=O)[C@H](Cc2c[nH]cn2)NC(=O)[C@H]([C@@H](C)O)NC(=O)[C@H](CCCNC(=N)N)NC(=O)[C@H](CO)NC3=O)NC(=O)[C@H](CCCCN)NC(=O)[C@H](CC(=O)O)NC(=O)[C@H](CC(N)=O)NC(=O)[C@H](CC(=O)O)NC(=O)[C@@H]2CCCN2C1=O` [compound 415] (H-DCLGFMRKCIPDNDKCCRPNLVCSRTHKWCKYV-NH2; disulfide 2-17, 9-23, 16-30), the IC50 under setting [1] is 2350 nM.
Still for that read-out and setting: in the case of `CC[C@H](C)[C@@H]1NC(=O)[C@@H]2CSSC[C@@H]3NC(=O)[C@H](C(C)C)NC(=O)[C@H](CC(C)C)NC(=O)[C@H](CC(N)=O)NC(=O)[C@@H]4CCCN4C(=O)[C@H](CCCNC(=N)N)NC(=O)[C@H](CSSC[C@H](NC(=O)[C@@H](N)CC(=O)O)C(=O)N[C@@H](CC(C)C)C(=O)NCC(=O)N[C@@H](Cc4ccccc4)C(=O)N[C@@H](CCSC)C(=O)N[C@@H](CCCNC(=N)N)C(=O)N[C@@H](CCCCN)C(=O)N2)NC(=O)[C@H](CSSC[C@@H](C(=O)N[C@@H](CCCCN)C(=O)N[C@@H](Cc2ccc(O)cc2)C(N)=O)NC(=O)[C@H](Cc2c[nH]c4ccccc24)NC(=O)[C@H](CCCCN)NC(=O)[C@H](Cc2c[nH]cn2)NC(=O)[C@H]([C@@H](C)O)NC(=O)[C@H](CCCNC(=N)N)NC(=O)[C@H](CO)NC3=O)NC(=O)[C@H](CCCCN)NC(=O)[C@H](CC(=O)O)NC(=O)[C@H](CC(N)=O)NC(=O)[C@H](CC(=O)O)NC(=O)[C@@H]2CCCN2C1=O` [compound 416] (H-DCLGFMRKCIPDNDKCCRPNLVCSRTHKWCKY-NH2; disulfide 2-17, 9-23, 16-30) it was 1500 nM.
Take “[2-Abu-2,17]GpTx-1 (D[Abu]LGFMRKCIPDNDKC[Abu]RPNLVCSRTHKWCKYVF-NH2; ends and bridges not checked)”: the “activity against NaV1.7 relative to GpTx-1, in words” value is reported as “retains significant activity”.
On to “[Glu18;desAsn20]GpTx-1 (DCLGFMRKCIPDNDKCCEGLVCSRTHKWCKYVF-NH2; ends and bridges not checked)”, for which the “activity against NaV1.7 relative to GpTx-1, in words” value was “without substantial impact on the activity”.
On the same count and under the same terms, then “[Ser-Ser19]GpTx-1 (DCLGFMRKCIPDNDKCCRSSNLVCSRTHKWCKYVF-NH2; ends and bridges not checked)”, with “without substantial impact on the activity”.
